Measured values from patent US20250003953A1, “Methods and Model Systems for Assessing Therapeutic Properties of Candidate Agents and Related Computer Readable Media and Systems” (The Regents of the University of California, priority 2021, published 2025).

Assays:
H2030 (KRAS.G12C) = experiment: Mitochondrial content with Mitotracker Deep Red FM in long term drug tolerant line; assay type: cell-based, human; conditions: 30 day treatment, 10 uM; drug-persistent vs parental H2030
[1] = system: KRAS.G12C cell line H2030; experiment: Lipid peroxidation by KRAS inhibitors in KRAS.G12C line; assay type: cell-based, human
Method: FIG. 7B plots gene expression of anti-ferroptotic genes for each cell line in response to increasing ARS1620 dosage.
Using a lipid peroxidation live cell probe, lipid peroxidation—one of the hallmark phenotypes of ferroptosis—was measured in response to ARS-1620 treatment.

[2] = system: KRAS.G12C cell lines in a cell pool; experiment: GENEVA pool gene set expression after drug, in vivo; set-up: species or system mouse; conditions: post-drug treatment
Method: 2 mL of Matrigel Basement Membrane reagent was added to the GENEVA pool prepared by growth rate balancing for a final concentration of 20M/mL. One hundred microliters of this solution was injected into NSG mice in a flank xenograft injection. Twenty-four hours later, mice harboring GENEVA tumors were drugged with the drug compound in a vehicle solution of 5% DMSO, 95% Labrasol. Mice were dosed by oral gavage four fourteen days with five days on, two days off. On the fourteenth day, mice were sacrificed, tumors harvested by homogenization with surgical shears and resuspended in 5 mg/mL Liberase™ Cell Dissociation Reagent in 1:1 DMEM: F12 cell media, DNAse I (10 U/uL). Tumors were incubated in a 37° C. incubator with shaking at 600 RPMs for 45 minutes for enzymatic dissociation and then spun down at 800 g for 5 minutes at 4° C. Dissociated tumors were resuspended in 100 uL 1×PBS.
The GENEVA datasets were compared where GENEVA pools were drugged with the KRAS.G12C inhibitor ARS1620, conducted both in vitro and in vivo. Specifically, the in vitro data were compared against the in vivo data to look for differences and similarities attributable to the context of the model systems used. […]
For in vivo and in vitro datasets, we combined the median z score results determined in Example 8 and t-test results, respectively, were combined on a paired geneset by geneset basis. […]

[3] = system: tumors from KRAS.G12C, EML4-ALK, and TH21 lung cancer patients; experiment: GENEVA pools of PDX models, relative survival by genotype; assay type: in vivo, human; conditions: PDX GENEVA pool
Source text: Higher confidence metrics are noted in the dotted line, or Noise Corrected Algorithm results.
GENEVA pools of PDX models were created for a long term drug treatment assay. Tumors were implanted in vivo and in organoids, and tumors from KRAS.G12C, EML4-ALK, and TH21 lung cancer patients were drugged in GENEVA pools. Significant drug sensitivity was found in EML4-ALK patient greater than sensitivity of KRAS.G12C mutant tumors indicating EML4-ALK patient tumors would respond to a KRAS.G12C inhibitor (FIG. 9B).

lipid peroxidation = experiment: Lipid peroxidation live cell probe dose curve and survival kinetics; assay type: cell-based
Source text: FIG. 7B plots gene expression of anti-ferroptotic genes for each cell line in response to increasing ARS1620 dosage. […] Lipid peroxidation and survival kinetics cross over around IC50 in all compounds indicating ARS1620 performs as a ferroptosis inducing agent.
(§1) Among this group of genes were FTH1 and FTL, the two components of the Ferritin Complex, which is responsible for sequestration of labile free iron. Using a lipid peroxidation live cell probe, lipid peroxidation—one of the hallmark phenotypes of ferroptosis—was measured in response to ARS-1620 treatment.

[4] = system: KRAS.G12C lines in GENEVA pools; experiment: GENEVA pool transcriptome changes in cells surviving drug treatment; assay type: cell-based, human
Method: Long-time course GENEVA pools were created to understand how ARS1620 achieved durable tumor regression in human cells. A seven day drug treatment regimen was conducted and transcriptome changes in surviving cells were analyzed.
For each cell line, single cell datasets were divided into two sub-datasets: vehicle treated and drug treated. Differential expression was calculated between two single-cell datasets using a two-sample t-test. A differential expression score was obtained for each gene from two-sample t-test output. All cell lines were repeated until done and all differential expression scores for genes were saved into aggregated differential expression tables by cell line. Cells were grouped according to their phenotypic sensitivity to the tested compound. For tested compounds, the genetic driver of the compound sensitivity was discovered as described previously herein. Using the genetic driver, cell lines were classified by presence or absence of the driver into two categories, sensitive vs non-sensitive. The differential expression matrix was grouped into sensitive and insensitive cell lines. z-scores for genes within each cell line were calculated, genes were grouped by gene sets from biological geneset databases curated from scientific literature, and two sample T-tests with grouped z-scores were performed. First, all differential expression scores were normalized to the same scale by z-score within each cell line. […] Summary statistics from each gene test were saved and the z-score difference was calculated. The biological mechanism of action of the molecule of interest was determined by rank ordering the median z score results from each geneset to determine the relative upregulation or downregulation of genesets in response to the compound.
as §1

Q: For `C=CC(=O)N1CCN(c2ncnc3c(F)c(-c4c(O)cccc4F)c(Cl)cc23)CC1` [ARS1620], which “mitochondrial content after long term treatment” value (H2030 (KRAS.G12C)) is on record?
A: mitochondria are significantly ablated

Q: And the lipid peroxidation [1]?
A: increased lipid peroxidation

Q: And the “endothelial-mesenchymal transition hallmark gene expression signature” value [2]?
A: increased in vivo

Q: What about the “relative survival of genotype under treatment or vehicle” value [3] of the same compound?
A: EML4-ALK as the most drug sensitive tumor type

Q: What about the “lipid peroxidation dose response” value (lipid peroxidation; 48 h, fluorescent lipid peroxidation sensor) of the same compound?
A: induced lipid peroxidation in a dose dependent fashion

Q: And the “cross-over of survival and normalized lipid peroxidation curves” value (lipid peroxidation; dose curves)?
A: crossed over around the IC50 survival value

Q: What about the “percentage of mitochondrial reads in surviving cell subpopulations” value ([4]; after drug treatment, within each cell line of the pool) of the same compound?
A: significantly lower percentage of mitochondrial reads relative to overall reads

Q: What about the “expression of anti-ferroptotic genes in surviving cells” value ([4]; long-term treatment, across KRAS.G12C lines) of the same compound?
A: Consistently upregulated genes across cell lines were found to be involved in an anti-ferroptotic response mechanism

Q: What about the “expression of mitochondrially encoded genes in surviving cells” value ([4]; seven day drug treatment regimen) of the same compound?
A: Mitochondrially encoded genes were downregulated
